The source of these data is US12274703B2, “Compositions and methods of treatment for neurological disorders comprising a dementia” (Gliapharm SA, priority 2017, dated 2025).

Structures can show the parent of a compound that is named as a salt.

One test has as its system primary astrocytes. The test is described as follows: High throughput screening for lactate secretion: acidification of extracellular medium (SNARF5). Type of test: cell-based, mouse. The conditions noted are these: Mus musculus, Astrocyte, 1.5 h; Appendix I; primary screening, 10 uM, 90 min; relative to positive control; read-out: Score. As to the method: Primary cultures of cerebrocortical astrocytes were obtained from 1-2-day-old OF1 mouse pups (Charles River Laboratories). Briefly, cortices were isolated and minced in small pieces under a dissecting microscope. The cells were incubated for 30 min at 37° C. in a solution containing 20 U/ml of papain enzyme (Worthington Biochemical), L-cysteine 1 mM (Sigma), and 10 kU/ml DNase I (Worthington Biochemical) for an enzymatic dissociation. Papain activity was stopped by the addition of fetal calf serum (FCS) to the solution, and a single-cell suspension was then obtained by mechanical dissociation, which consisted in cells trituration in a DMEM (D7777, Sigma-Aldrich) medium (supplemented with 44 mm NaHCO3, and 10 ml/L antibiotic/antimycotic solution) containing 10% FCS. The cells were seeded at an average density of 6×10^4 cells/cm^2 in poly-D-lysine-coated 96, 12 or 6-well culture plates, depending on their use, and incubated at 37° C. in a humidified atmosphere containing 5% CO2/95% air. Culture medium was renewed twice per week. Cells were stimulated and harvested between DIV14 and DIV17, when confluence and cell growth were optimal.
Secretion of lactate in a high-throughput screening (HTS) fashion was measured indirectly through the acidification of extracellular medium. To this end, primary astrocytes grown in 96-well plates for 17 days were stimulated with the compounds as listed herein.
After washing the cells twice with stimulation medium (DMEM (D5030, Sigma), 3 mM NaHCO3 and 5 mM Glucose) at 37° C., cells were stimulated with the compounds at a final concentration of 10 uM (1% DMSO final) in 50 ul per well of stimulation medium supplemented with 10 uM of the extracellular pH sensor SNARF-5F %-(AND-6)-CAR (Life Technologies Corporation). Each compound was tested in two different plates for duplicates.
After 90 min stimulation, fluorescence was read at exc. (excitation) 480 nm/emm. (emission) 580 nm and at exc 480 nm/emm. 630 nm. The ratio of fluorescence between 630 nm and 580 emission values, which represents extracellular pH, was calculated.
In each plate, 8 wells were used for negative controls (DMSO) and 8 wells were used for positive controls (CCCP 2 uM in DMSO). Z prime values were calculated for each of the plates tested and values <0 were discarded.
The average and SD of compounds' values tested in duplicates were calculated, and compound was noted as HIT when the difference between compound's average and negative control's average was greater than three times the sum of compound's SD and negative controls' SD. Only scores greater than 40% were considered as lead hits for the CDC54K library; for the remaining libraries, all hits were considered. Scores are calculated as the % of activity compared to the positive control in each plate (which is 100%).
Primary screening hits were cherry picked on new plates and confirmed for SNARF5 effect, after having discarded those compounds that are fluorescent (exc. 480 nm/emm. 580 nm or 630 nm) before stimulation. Extracellular medium was next analyzed for extracellular lactate quantification for secondary screening.
Identification of lactate-enhancing drugs with high throughput screening (HTS) experiments on astrocytes primary cultures using extracellular pH dye (SNARF5F 5-(and 6)-carboxylic acid) for 90 min. The procedure is described in Material and Methods (2. Cell culture, 2.1. HTS for lactate secretion and 2.2. Extracellular lactate quantification).
The procedure was performed as follows: • Primary screening: acidification of the extracellular medium • Primary screening confirmation: acidification of the extracellular medium, removal of compounds with fluorescent activity at exc. 480 nm/emm. 580 nm or 630 nm. • Secondary screening: dosage of extracellular lactate
In the case of `c1ccc(CN2CCC(Nc3ncnc4c3CCC4)CC2)nc1` [T636-1715], the Emax at 10 µM is 0%.

Consider `CC(=O)N1CCCc2cc(S(=O)(=O)NCc3ccc(Cl)cc3)ccc21` [G855-0033], for which the Emax at 10 µM was 34.7%.

Turning to `O=S(=O)(NC1CCN(c2ncnc3c2CCC3)C1)c1ccccc1` (stereo not drawn) [T636-1250], the Emax at 10 µM came out at 96.4%.

For `Cc1cccc([N+]2=C3CCCCN3C(O)(c3ccc(Cl)cc3)C2)c1` (stereo not drawn) [K404-0800], the Emax at 10 µM was found to be 97.3%.

In the case of `COc1cccc(-c2cc3n(n2)CCCN(Cc2ccncc2)C3)c1` [T202-0973], the Emax at 10 µM amounted to 34.1%.

With `Cc1nc2ccc(NS(=O)(=O)c3ccccc3F)cc2s1` [T5511047], the Emax at 10 µM worked out at 67%.

For `O=C(NCc1ccccc1)NC1CCN(c2ncnc3c2CCC3)C1` (stereo not drawn) [T636-1210], the Emax at 10 µM stood at 48.9%.

For `O=C(c1ccc(Cl)s1)N1CCC(Nc2ncnc3c2CCC3)C1` (stereo not drawn) [T636-2391], the Emax at 10 µM was found to be 93.2%.

`COc1ccc(OC)c([N+]2=C3CCCCCN3C(O)(c3ccc([N+](=O)[O-])cc3)C2)c1` (stereo not drawn) [K404-0863]: the Emax at 10 µM came to 0%.

`CC(=O)N1CCc2sc(S(=O)(=O)NCc3ccccc3)cc2C1` [P025-0168]: the Emax at 10 µM was 14.5%.

Consider `O=S(=O)(NC1CCCC1)c1cc(-c2noc(C3CCC3)n2)cs1` [L287-1221], for which the Emax at 10 µM is 51.6%.

With `Cc1ccc([N+]2=C3CCCCCN3C(O)(c3ccc([N+](=O)[O-])cc3)C2)cc1` (stereo not drawn) [K404-0828], the Emax at 10 µM stood at 0%.

For the compound `O=C(C1CCOC1)N1CCCn2nc(-c3cccc(Cl)c3)cc2C1` (stereo not drawn) [P218-0884], the Emax at 10 µM is 0%.

Turning to `CC(C)OCCCNc1ncnc2c1CCC2` [T636-0027], the Emax at 10 µM stood at 53.6%.

On to `CC(=O)c1ccc(NS(=O)(=O)c2cc(-c3noc(C4CCCC4)n3)cs2)cc1` [L287-1577], for which the Emax at 10 µM was found to be 119%.

As to `Cc1cccc([N+]2=C3SCCCN3C(O)(c3ccc(F)cc3)C2)c1` (stereo not drawn) [K404-0394], the Emax at 10 µM came to 34.7%.

Consider `OC1(c2ccccc2)C[N+](c2ccccc2)=C2SCCCN21` (stereo not drawn) [T0507-8442], for which the Emax at 10 µM was found to be 26.8%.

For `O=C(C[n+]1cc(-c2ccc(Br)cc2)n2c1CCCCC2)c1ccccc1` [T0500-4648], the Emax at 10 µM amounted to 109%.

As to `CCOc1ccc(C2(O)C[N+](c3ccccc3C)=C3CCCCN32)cc1` (stereo not drawn) [F0524-0511], the Emax at 10 µM was 70%.

Turning to `Cc1cccc([N+]2=C3SCCCN3C(O)(c3ccc(OC(F)F)cc3)C2)c1` (stereo not drawn) [K404-0400], the Emax at 10 µM is 36.3%.

Consider `Cc1cccc([N+]2=C3CCCCCN3C(O)(c3ccc(F)cc3)C2)c1` (stereo not drawn) [K404-0910], for which the Emax at 10 µM was 72.6%.

On to `c1cncc(CCNc2ncnc3c2CCC3)c1` [T636-0085], for which the Emax at 10 µM turned out to be 28.4%.

Take `COc1ccccc1S(=O)(=O)Nc1ccc2nc(C)sc2c1` [T5246417]: the Emax at 10 µM was found to be 24.1%.

Consider `COc1ccc([N+]2=C3SCCCN3C(O)(c3cccc([N+](=O)[O-])c3)C2)cc1` (stereo not drawn) [K404-0277], for which the Emax at 10 µM was found to be 0%.

Take `Cc1nc2c(c(Nc3cccc(C(F)(F)F)c3)n1)CCC2` [D278-0514]: the Emax at 10 µM is 0%.

On to `Cc1ccc(CNc2ncnc3c2CCC3)o1` [T636-0054], for which the Emax at 10 µM was determined as 55.3%.

For the compound `COc1ccc(Cl)cc1S(=O)(=O)NCc1ccncc1` [F0376-0203], the Emax at 10 µM was 20.3%.

For the compound `CNC(=O)C1CCCN(c2ncnc3oc(C)c(C)c23)C1` (stereo not drawn) [F228-0541], the Emax at 10 µM was 15.3%.

Take `Cc1cccc(NS(=O)(=O)c2cc(-c3ccnn3C)cs2)c1` [L924-0884]: the Emax at 10 µM amounted to 65.6%.

With `Cc1cccc(NS(=O)(=O)c2cc(-c3noc(C)n3)cs2)c1` [L287-0220], the Emax at 10 µM was 35.2%.

For the compound `CCNC(=O)C1CCCN(c2ncnc3oc(C)c(C)c23)C1` (stereo not drawn) [F228-0534], the Emax at 10 µM worked out at 35.4%.

`CC(=O)N1CCc2sc(S(=O)(=O)Nc3cc(C)cc(C)c3)cc2C1` [P025-0080]: the Emax at 10 µM stood at 33.1%.

With `COc1ccc(C2SCCN2S(=O)(=O)c2ccc(C)c(C)c2)cc1OC` (stereo not drawn) [F1462-0491], the Emax at 10 µM turned out to be 27.2%.

Consider `O=C(C[n+]1cc(-c2ccccc2)n2c1CCC2)c1ccc(Br)cc1` [T0502-5560], for which the Emax at 10 µM turned out to be 102%.

Turning to `c1ccc(C(Nc2ncnc3sccc23)C2CC2)cc1` (stereo not drawn) [T6016487], the Emax at 10 µM turned out to be 126%.

On to `Cc1oc2ncnc(N3CCCC(C(=O)NCc4cccnc4)C3)c2c1C` (stereo not drawn) [F228-0351], for which the Emax at 10 µM was found to be 59.2%.

In the case of `Cc1ccc(S(=O)(=O)N2CCSC2c2cccc([N+](=O)[O-])c2)c(C)c1` (stereo not drawn) [T5463709], the Emax at 10 µM amounted to 24.4%.

Turning to `COc1ccc(C)cc1NS(=O)(=O)c1cc(-c2ccnn2C)cs1` [L924-0830], the Emax at 10 µM turned out to be 78.2%.

As to `Cc1oc2ncnc(N3CCCC(C(=O)NCc4ccccc4)C3)c2c1C` (stereo not drawn) [F228-0365], the Emax at 10 µM was determined as 103%.

Regarding `COc1ccc(C2(O)C[N+](c3ccccc3C)=C3CCCCCN32)cc1OC` (stereo not drawn) [K404-0906], the Emax at 10 µM amounted to 19.1%.

For `Cn1nccc1-c1csc(S(=O)(=O)Nc2ccc(F)cc2)c1` [L924-0760], the Emax at 10 µM turned out to be 69.1%.

In the case of `CC(=O)N1CCCc2cc(S(=O)(=O)NCc3cccc(C(F)(F)F)c3)ccc21` [T6099519], the Emax at 10 µM was found to be 27.6%.

For the compound `O=C(NCc1cccc(F)c1)NC1CCN(c2ncnc3c2CCC3)C1` (stereo not drawn) [T636-1243], the Emax at 10 µM was found to be 45.5%.

On to `c1coc(CNc2nc(-c3ccncc3)nc3c2CCC3)c1` [T636-0973], for which the Emax at 10 µM is 0%.

`O=C(C1CC1)N1CCc2sc(S(=O)(=O)Nc3cccc(Cl)c3)cc2C1` [P025-0462]: the Emax at 10 µM came out at 38.7%.

For `O=C(NC1CC1)c1cccc(NS(=O)(=O)c2ccc(N3CCCC3=O)cc2)c1` [T5618591], the Emax at 10 µM turned out to be 41.6%.

As to `Cc1ccc(C)c([N+]2=C3CCCCN3C(O)(c3ccc(F)cc3)C2)c1` (stereo not drawn) [K404-0697], the Emax at 10 µM is 59.6%.

For `CCN(Cc1ccccc1)S(=O)(=O)c1cc(-c2noc(C3CCCC3)n2)cs1` [L287-1758], the Emax at 10 µM was 0%.

On to `COc1ccc(C2(O)C[N+](c3cccc(C)c3)=C3CCCCN32)cc1` (stereo not drawn) [K404-0796], for which the Emax at 10 µM turned out to be 86.1%.

For the compound `O=C(Cc1n[nH]c(=O)c2ccccc12)Nc1cccc(Br)c1` [T5717474], the Emax at 10 µM turned out to be 21.7%.

With `c1csc(C(Nc2ncnc3sccc23)C2CC2)c1` (stereo not drawn) [T5713637], the Emax at 10 µM amounted to 114%.

Consider `COc1ccccc1[N+]1=C2CCCCCN2C(O)(c2ccccc2)C1` (stereo not drawn) [K404-0838], for which the Emax at 10 µM was 103%.

`O=C(c1ccco1)N1CCCn2nc(-c3ccc(C(F)(F)F)cc3)cc2C1` [T200-0370]: the Emax at 10 µM stood at 56.2%.

In the case of `COc1ccccc1[N+]1=C2CCCCCN2C(O)(c2cccc([N+](=O)O)c2)C1` (stereo not drawn) [K404-0842], the Emax at 10 µM was determined as 16.9%.

In the case of `CCn1nccc1-c1csc(S(=O)(=O)Nc2cc(C)ccc2C)c1` [L924-0988], the Emax at 10 µM turned out to be 52.7%.

The test is the same for the next values; noted with them: Mus musculus, Astrocyte, 1.5 h; Prestwick hits; 10 uM, 90 min; activity relative to positive control CCCP 2 uM; read-out: Score.
Consider `CC(COc1ccccc1)NC(C)C(O)c1ccc(O)cc1` (stereo not drawn) [Isoxsuprine hydrochloride], for which the Emax at 10 µM was found to be 5.5%.

`CCC(=O)O[C@@H](O[P@](=O)(CCCCc1ccccc1)CC(=O)N1C[C@H](C2CCCCC2)C[C@H]1C(=O)O)C(C)C` [Fosinopril]: the Emax at 10 µM came to 5.71%.

`Cc1cc(/C=C/c2ccc3cc(N(C)C)ccc3[n+]2C)c(C)n1-c1ccccc1` [Pyrvinium pamoate]: the Emax at 10 µM worked out at 99.1%.

As for `CCCCC(CC)CNC(=N)NC(=N)NCCCCCCNC(=N)NC(=N)NCC(CC)CCCC` (stereo not drawn) [Alexidine dihydrochloride], the Emax at 10 µM amounted to 38.9%.

Still in this test, the particulars now being: Mus musculus, Astrocyte, 1.5 h; Prestwick hits; 10 uM, 90 min; relative to positive control CCCP 2 uM; read-out: HTS Score (lactate).
Take `CC(COc1ccccc1)NC(C)C(O)c1ccc(O)cc1` (stereo not drawn) [Isoxsuprine hydrochloride]: the Emax at 10 µM is 5.5%.

Take `CCC(=O)O[C@@H](O[P@](=O)(CCCCc1ccccc1)CC(=O)N1C[C@H](C2CCCCC2)C[C@H]1C(=O)O)C(C)C` [Fosinopril]: the Emax at 10 µM was 5.7%.

On to `Cc1cc(/C=C/c2ccc3cc(N(C)C)ccc3[n+]2C)c(C)n1-c1ccccc1` [Pyrvinium pamoate], for which the Emax at 10 µM was determined as 99.1%.

For `CCCCC(CC)CNC(=N)NC(=N)NCCCCCCNC(=N)NC(=N)NCC(CC)CCCC` (stereo not drawn) [Alexidine dihydrochloride], the Emax at 10 µM was 38.9%.
